Blank lines part the entries; values can stand above or below the compound they belong to.
Key:
[1] = Extent of emulsification, droplet size by optical microscope; format: physicochemical
Protocol: The extent of emulsification was determined by mixing the preconcentrate and water in a ratio of 1:100 and 1:10 by gentle inversion (5×), visual inspection, and examination under an optical microscope, using a polarizing filter to check for the appearance of crystals. Droplet size determined by this approach is expressed as the upper limit for the average droplet size, since submicron droplets cannot be detected by this method.

[2] = Microsolubility estimate by repeated addition of vehicle; format: physicochemical
Protocol: (§1) For CETP inhibitors where quantities were limited, an estimate of solubility was obtained by addition of vehicle to a known quantity of the compound and mixing in an ultrasonicator bath for 90 minutes, followed by overnight equilibration at ambient temperature. Addition of vehicle was repeated until a solution was achieved.
as §1, with “limited or the samples were amorphous solids,” for “limited,”, “achieved. From the total volume of vehicle added to solubilize the CETP inhibitor compound, the solubility value, or so-called microsolubility, was calculated by the equation: Weight of sample (mgA)/vehicle volume (mL)=Microsolubility (mgA/mL)” for “achieved.”

[3] = Equilibrium solubility in excipients, vehicles and emulsion preconcentrates; format: physicochemical
Protocol: The solubility of CETP inhibitors in excipients and in formulations was determined by adding an excess of compound to the medium in question. The mixture was agitated by rotation over a period of days at ambient temperature until the concentration in solution had reached an equilibrium as judged by similar measurements for consecutive time points. Concentrations were measured by filtration of aliquots with a PTFE syringe filter and assay by HPLC as described in Example 11.
The solubility of crystalline CETP inhibitors in representative vehicles was determined by adding an excess of compound to the vehicle in question. The mixture was agitated by rotation over a period of days at ambient temperature until the concentration in solution had reached equilibrium as judged by similar measurements for consecutive time points. Concentrations were measured by filtration of aliquots with a PTFE syringe filter and assayed by HPLC.
The concentrations of CETP inhibitor in each vehicle were assayed at intervals by dilution of aliquots into acetonitrile and gradient HPLC analysis on a Water Symmetry C-8 column (3.9×150 mm, 5 micron) at 30° C. at a flow rate of 1 mL/min. […] The detection method was UV absorbance at 210 nm.

[4] = Emulsion from oil solution plus equal volume of water: particle size and stability; format: physicochemical
Protocol: An emulsion was prepared by combining 1 volume of oil solution with an equal volume of de-ionized water. […] The emulsion is then stirred continuously to maintain homogeneity.
An emulsion was prepared by combining 1 volume of oil solution with an equal volume of de-ionized water. This mixture was stirred for 10 minutes and then vortex mixed for 2 minutes. […] It was stirred continuously to maintain homogeneity.
An emulsion was prepared by combining combining 1 volume of oil solution with an equal volume of de-ionized water. This mixture was stirred for 10 minutes and then vortex mixed for 2 minutes. […] It was stirred continuously to maintain homogeneity.

[5] = Pharmacokinetics in dogs; format: in vivo, Male Beagle dogs; settings: for Cmax / Tmax: male, Beagle, dog, plasma, po
Protocol: Male Beagle dogs (n=6) between the ages of 2-5 and weighing 6-12 kg were dosed with capsules followed by 50 mL of water. […] The dogs were either fasted or fed just prior to dosing with 14 g of dry dog food and 8 gm olive oil. The same set of dogs were used for all formulations, except where indicated. […]
Unless otherwise indicated, results are for the fasted state. Miglyol® softgels have a very low fasted exposure and thus a high food effect. The fasted exposure is higher than that for crystalline suspension, while the fed exposure using this high oil meal is the same. Thus Miglyol softgels provide a lower food effect than crystalline drug. At the same dose of 90 mgA, formulations such as A, O, and C that include surfactants and cosolvent have much higher fasted exposures and only a ca. 3× food effect. The fed exposures are also higher than for Miglyol® 812 softgels and crystalline drug. Poorer fasted exposure was obtained for Formulation WW, which contains a high level of ethyl lactate as a cosolvent.

[6] = Dynamic light scattering particle size analysis of emulsions; format: physicochemical
Protocol: Preliminary particle size analysis data has been obtained on selected formulations using a dynamic light scattering particle size analyzer (ZetaPals, Brookhaven Instruments, Inc.) for measurement of sub-micron particle distribution. The formulation solutions were diluted 1:100 in HPLC-grade water (previously filtered through a 0.22 μm syringe filter). The resulting mixture was gently inverted five times to create the emulsion. Each emulsion sample was then analyzed at a temperature of 37° C. Triplicate measurements were made at each time point (0, 30 min).

[7] = equilibrium, vehicle Miglyol 812
[8] = equilibrium, vehicle Miglyol 812/propylene carbonate/Cremophor EL (60/20/20)
[9] = 90 mg, Fed, Miglyol 812/Triacetin/Cremophor RH40/Capmul MCM (20/30/20/30)
[10] = 90 mg, fasted, Miglyol 812/Triacetin/Cremophor RH40/Capmul MCM (20/30/20/30)
[11] = preconcentrate Miglyol 812/Triacetin/Polysorbate 80/Capmul MCM 22/27/20/31 % v/v
[12] = 60 mg, fasted, Miglyol 812/Triacetin/Polysorbate 80/Capmul MCM (22/27/20/31)

Ave Droplet Size (1:100 dilution) ([1]; preconcentrate Miglyol 812/Triacetin/Polysorbate 80/Capmul MCM 20/30/20/30 % v/v): <5 μ
Solubility ([2]; Capmul MCM, oil or lipid, thermodynamic from solid, read-out: Microsolubility): < 100 mg/mL
Solubility ([2]; Crodamol GTCC, oil or lipid, thermodynamic from solid, read-out: Microsolubility): < 20 mg/mL
Solubility ([2]; Crodamol GTCC/Capmul MCM/Polysorbate 80 (40/40/20), oil or lipid, thermodynamic from solid, read-out: Microsolubility): < 100 mg/mL
Solubility ([2]; Olive oil, oil or lipid, thermodynamic from solid, read-out: Microsolubility): < 100 mg/mL
Solubility ([2]; PEG 400, organic solvent or mixture, thermodynamic from solid, read-out: Microsolubility): < 100 mg/mL
Solubility ([2]; oil or lipid, thermodynamic from solid, read-out: Microsolubility): < 100 mg/mL
Solubility ([2]; preconcentrate Miglyol 812/Triacetin/Polysorbate 80/Capmul MCM 20/30/20/30 % v/v, amorphous solid): ≧100 mgA/mL
SMILES: CCC(CC)CC1(C(=O)Nc2ccccc2SC(=O)C(C)C)CCCCC1 [Compound B, Propanethioic acid, 2-methyl-, S-[2-[[[1-(2-ethylbutyl)cyclohexyl]carbonyl]amino]phenyl]ester]

Solubility ([3]; equilibrium, vehicle Capmul MCM): 58 mgA/ml
Solubility ([3]; equilibrium, vehicle Cremophor EL): 18 mgA/ml
Solubility [3, 7]: 61 mgA/ml
Solubility ([3]; equilibrium, vehicle Miglyol 812/Cremophor EL 80/20): 51 mgA/ml
Solubility [3, 8]: 208 mgA/ml
Solubility ([3]; equilibrium, vehicle Olive oil): 13 mgA/ml
Solubility ([3]; equilibrium, vehicle Olive oil/Cremophor EL 80/20): 14 mgA/ml
Solubility ([3]; equilibrium, vehicle Triacetin): 239 mgA/ml
Solubility ([3]; preconcentrate Miglyol 812/Triacetin/Cremophor RH40/Capmul MCM 20/30/20/30 % v/v): 172 mgA/mL
AUG 0-tlast ([5]; Fed, 90 mg, Miglyol 812/Triacetin/Cremophor RH40/Capmul MCM (20/30/20/30), Tlast 24 hr): 4840 ± 1230 ng·h/mL
AUG 0-tlast ([5]; fasted, 90 mg, 100 mg/mL in Miglyol 812/Triacetin/Cremophor RH40/Capmul MCM (20/30/20/30), Tlast 24 hr): 3450 ± 960 ng·h/mL
Cmax [5, 9]: 1200 ± 410 ng/mL
Tmax [5, 9]: 1.5 h
Cmax [5, 10]: 860 ± 310 ng/mL
Tmax [5, 10]: 1.7 h
SMILES: CC[C@@H]1C[C@H](N(Cc2cc(C(F)(F)F)cc(C(F)(F)F)c2)C(C)=O)c2cc(C(F)(F)F)ccc2N1C(=O)OC(C)C [Compound D, [2R,4S] 4-[acetyl-(3,5-bis-trifluoromethyl-benzyl)-amino]-2-ethyl-6-trifluoromethyl-3,4-dihydro-2H-quinoline-1-carboxylic acid isopropyl ester]
chemical degradation or crystallization ([4]; Example 19 oil after storage for 8 days or emulsion after 24 hr): No chemical degradation based on HPLC analysis or crystallization based on microscopic examination was detected

Ave Droplet Size (1:100 dilution) [1, 11]: <2 μ
Mean Diam. ([6]; 30 min., 100 mg/mL in Miglyol 812/Triacetin/Polysorbate 80/Capmul MCM (22/27/20/31)): 175 nm
Mean Diam. ([6]; 30 min., 200 mg/mL in Miglyol 812/Triacetin/Polysorbate 80/Capmul MCM (22/27/20/31)): 251 ± 45 nm
Mean Diam. ([6]; Initial, 100 mg/mL in Miglyol 812/Triacetin/Polysorbate 80/Capmul MCM (22/27/20/31)): 181 nm
Mean Diam. ([6]; Initial, 200 mg/mL in Miglyol 812/Triacetin/Polysorbate 80/Capmul MCM (22/27/20/31)): 239 ± 17 nm
Solubility [3, 7]: 167 mgA/ml
Solubility [3, 8]: 394 mgA/ml
Solubility ([3]; equilibrium, vehicle Olive oil): 39 mgA/ml
Solubility [3, 11]: 308 mgA/mL
average particle size of emulsion ([4]; Example 15 oil solution (Miglyol 812/propylene carbonate/Cremophor EL, 275 mg/g) plus equal volume water): less than 10 microns
AUG 0-tlast ([5]; fasted, 60 mg, 100 mg/mL in Miglyol 812/Triacetin/Polysorbate 80/Capmul MCM (22/27/20/31), Tlast 48 hr): 2900 ± 670 ng·h/mL
Cmax [5, 12]: 200 ± 140 ng/mL
Tmax [5, 12]: 1.5 h
SMILES: CC[C@@H]1C[C@H](N(Cc2cc(C(F)(F)F)cc(C(F)(F)F)c2)C(=O)OC)c2cc(C(F)(F)F)ccc2N1C(=O)OC(C)C [Compound E, [2R,4S] 4-[(3,5-Bis-trifluoromethyl-benzyl)-methoxycarbonyl-amino]-2-ethyl-6-trifluoromethyl-3,4-dihydro-2H-quinoline-1-carboxylic acid isopropyl ester]
chemical degradation or crystallization ([4]; Example 15 oil or emulsion after storage for 24 hr, HPLC, microscopy): No chemical degradation based on HPLC analysis or crystallization based on microscopic examination was detected

— patent US6962931B2, “Self-emulsifying formulations of cholesteryl ester transfer protein inhibitors” (Pfizer Inc., priority 2001, dated 2005)
